As usually defined, the IC50 is the point on the concentration scale where inhibition reaches its midpoint.

Read-outs that look alike come from different tables or passages of the source.

The subject of assay [1] is J774 macrophages. The assay can be described thus: Resazurin viability assay in J774 macrophages. The settings on record: Mus musculus, read-out: IC50 (µM) Mean ± SD J774. The assay is classed as cell-based. Here is the method:
The murine macrophage cell line J774A.1 (mouse, ATCC, TIB-67™) was cultivated in Dulbecco’s Modified Eagle Medium (DMEM) (high glucose, 1.5 g/L NaHCO3) supplemented with 25,000 IU/L penicillin, 25 mg/L streptomycin, and 10% FCS (heat-inactivated) in 50 mL TubeSpin bioreactors. The tubes were kept in an incubator at 37 °C and 5% CO2 on a roller culture apparatus (5 rpm). The cells were passaged twice a week, diluting them in a ratio of 1:10. The macrophages were used until passage 30. To determine the cell count, the cell suspension was resuspended and diluted 1:2 with PBS. After fixation of the cells by mixing the cell suspension 1:1 with a formaldehyde solution (2%, v/v), aliquots of the resulting suspension were transferred into a standard Neubauer chamber (VWR, Austria) and counted manually using a light microscope (Motic BA310, Austria) at a magnification of 400×.
LtP (2 × 10^6 cells/mL) in a mixture of YEM and PBS (1:1, v/v) containing 25,000 U/L penicillin, 25 mg/L streptomycin, and 6 µM hemin (YEM/PBS) were prepared. Aliquots of 200 µL of this suspension were distributed in 96-well plates. Control rows containing YEM/PBS (no activity) and with untreated LtP (100% activity) were also loaded on the plate. To the wells of third rows, compounds (leading to a final vehicle concentration of max. 2% dimethyl sulfoxide (DMSO) in the wells) were added. Subsequently, five 1:5 serial dilution steps were performed. The plates were incubated at 26 °C for 48 h. Following the incubation, 50 µL of a resazurin solution in PBS were added to each well, giving a final concentration of 20 µM. After 4 h of incubation, the fluorescence was measured at 560 nm excitation and 590 nm emission using a plate reader (Perkin Elmer Enspire, Germany). The resazurin assays with J774 cells were performed in analogy to the LtP resazurin assays. Aliquots of a J774 cell suspension in DMEM supplemented with 25,000 U/L penicillin, 25 mg/L streptomycin, and 10% FCS (heat-inactivated), giving a final cell concentration of 10^5 cells/mL, were distributed in the wells of the 96-well microplates. The cells were incubated for 24 h (37 °C, 5% CO2) to allow attachment. Then the medium was discarded and non-adherent cells were removed with 200 µL PBS per well. After the addition of DMEM, the compounds were added, and a serial dilution was performed. Control rows with DMEM (no activity) and with untreated J774 cells (100% activity) were also included. […] Then the addition of resazurin and the measurement of fluorescence were carried out in analogy to the viability assays performed in LtP.
Calculations were carried out using Microsoft Excel (Microsoft). The graphs were created using Origin 6.1 (OriginLab Corporation, Northampton, MA, USA). The half maximal inhibitory concentrations (IC50) were determined from non-linear concentration–response curves using a four-parameter logistic model and expressed as the mean ± standard deviation (SD). Statistically significant differences of p <0.05 were identified using Students t-test.

Assay [2] has as its system LtP. In words: EPR (CMH oxidation): superoxide formation in LtP. The settings on record: 20 µM AA or 100 µM other compounds, 500 × 10^6 LtP/mL, 400 µM CMH, DFO, DTPA, 5 min, 25 °C. The assay is classed as cell-based, Leishmania tarentolae. Here is the method: To measure superoxide radical (O2^•−) formation induced by AcEPs in LtP, EPR spectroscopy was used. An aliquot of the cell broth was transferred into an Eppendorf tube that was centrifuged (Hettich Universal 16, 20 °C, 2000× g, 10 min). The supernatant was discarded, the cell pellet was resuspended in PBS and centrifuged again. After removal of the supernatant, the cell pellet was resuspended in a mixture of PBS, 15 mM glucose (PBS/Glu), DFO (100 µM), and DTPA (25 µM). […] The cell suspension was aliquoted. CMH was added as detection agent leading to a final concentration of 400 µM. After 5 min of incubation at 25 °C, the respective substance was added resulting in final concentrations of 20 µM antimycin A (AA) or 100 µM of AcEP1117, AcEP1118, AcEP1129, AcEP1130, Ac, and AQ. Samples containing LtP and CMH were used as negative control. Samples containing PBS/Glu and CMH were used as negative control as well. After 5 min of incubation at 25 °C with the respective substance, aliquots of 17 µL of the cell suspensions were aspirated into a PTFE tube (outer diameter 0.7 mm). The tube was transferred into the MD5 resonator of the EPR spectrometer. Immediately, the measurement was started using the following parameters: microwave frequency 9.684 GHz; microwave power 20 mW, modulation frequency 100 kHz; modulation amplitude 1 G; time constant 0.82 s; center field 3449 G; scan rate 14 G/min; sweep width 100 G; scan time 419 s; attenuation 2.52 × 10^4; and scans 5.

[3] abbreviates: resazurin assay, endpoint at 48 h, 10^5 J774/mL.

In the case of `O=C1c2ccccc2C(=O)c2ccccc21` [AQ, anthraquinone, reference compound], the concentration for half-maximal inhibition (IC50) in assay [1] (setting [3]) stood at 117 ± 24.3 µM. Besides, the “CMH oxidation (superoxide radical formation) in LtP” value (from here on “CMH oxidation”) in assay [2] is “did not trigger additional CMH oxidation in LtP”. With `c1ccc2cc3ccccc3cc2c1` [Ac, anthracene], the IC50 in assay [1] (J774, 48 h) was > 400 µM. Moreover, in assay [2], the “CMH oxidation” value was “did not trigger additional CMH oxidation in LtP”. Regarding `c1ccc2c(c1)C1OOC2c2ccccc21` [AcEP1117, 9,10-dihydro-9,10-epidioxidoanthracene], the IC50 in assay [1] (setting [3]) amounted to 43.8 ± 36.1 µM. Besides, in assay [2], the “CMH oxidation” value is reported as “failed to cause any enhanced oxidation of CMH”. For `CC12OOC(C)(c3ccccc31)c1ccccc12` [AcEP1118, 9,10-dimethyl-9,10-dihydro-9,10-epidioxidoanthracene], the IC50 in assay [1] (setting [3]) worked out at 4.34 ± 1.91 µM. In addition, the “CMH oxidation” value in assay [2] is “failed to cause any enhanced oxidation of CMH”. For `CC12OOC(c3ccccc31)c1ccccc12` [AcEP1129, 9-methyl-9,10-dihydro-9,10-epidioxidoanthracene], in assay [1] (setting [3]), the half-inhibitory concentration (IC50) stood at 0.9 ± 0.28 µM. The “CMH oxidation” value in assay [2] is reported as “an increased CMH oxidation rate occurred”. As for `CCc1ccc2c(c1)C1OOC2c2ccccc21` (stereo not shown) [AcEP1130, 2-ethyl-9,10-dihydro-9,10-epidioxidoanthracene], the IC50 in assay [1] (setting [3]) is 7.82 ± 0.47 µM. Besides, the “CMH oxidation” value in assay [2] was “an increased CMH oxidation rate occurred”.

`N=C(N)c1ccc(OCCCCCOc2ccc(C(=N)N)cc2)cc1` [Pen, pentamidine, reference compound]: the IC50 in assay [1] (setting [3]) was 14.4 ± 6.48 µM.
